Measured values as given in PubChem BioAssay AID248 (DTP/NCI, 2004).
Values joined by “and” are separate entries in the source; they are usually repeats but may differ in a detail not shown here. Equal values may be shown once. Toxic doses and inconclusive results are not listed. No stated cut-off is given here; in the data, active means T/C of 150% or more; inactive means T/C below 125%.

Tested on: L1210 leukemia ip in BDF1 mice, survival T/C
Assay: NCI In Vivo Anticancer Drug Screen. Data for tumor model L1210 Leukemia (intraperitoneal) in B6D2F1 (BDF1) mice
Settings: endpoint: mean survival time, higher = longer survival
Outline: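 Read-out is survival time, reported as the treated-group measurement over the vehicle-control measurement.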

[1] = dose: 100.0 mg/kg/injection, schedule: Q04DX003 (ip), vehicle: saline with Tween-80
[2] = dose: 200.0 mg/kg/injection, schedule: Q04DX003 (ip), vehicle: saline with Tween-80
[3] = dose: 400.0 mg/kg/injection, schedule: Q04DX003 (ip), vehicle: saline with Tween-80
[4] = dose: 100.0 mg/kg/injection, schedule: Q01DX009 (ip), vehicle: saline with Tween-80
[5] = dose: 200.0 mg/kg/injection, schedule: Q01DX009 (ip), vehicle: saline with Tween-80
[6] = dose: 100.0 mg/kg/injection, schedule: Q04DX003 (ip), vehicle: Klucel (hydroxypropylcellulose) (HPC)
[7] = dose: 400.0 mg/kg/injection, schedule: Q01DX009 (ip), vehicle: saline with Tween-80
[8] = dose: 200.0 mg/kg/injection, schedule: Q04DX003 (ip), vehicle: Klucel (hydroxypropylcellulose) (HPC)
[9] = dose: 400.0 mg/kg/injection, schedule: Q04DX003 (ip), vehicle: Klucel (hydroxypropylcellulose) (HPC)
[10] = dose: 50.0 mg/kg/injection, schedule: Q01DX009 (ip), vehicle: saline with Tween-80
[11] = dose: 25.0 mg/kg/injection, schedule: Q04DX002 (ip), vehicle: Klucel (hydroxypropylcellulose) (HPC)
[12] = dose: 50.0 mg/kg/injection, schedule: Q04DX002 (ip), vehicle: Klucel (hydroxypropylcellulose) (HPC)
[13] = dose: 100.0 mg/kg/injection, schedule: Q04DX002 (ip), vehicle: Klucel (hydroxypropylcellulose) (HPC)

Measured: T/C

CC(=O)Nc1ccccc1.[Hg]
inactive: dose: 1.56 mg/kg/injection, schedule: Q01DX009 (ip), vehicle: saline with Tween-80 90 % of control | dose: 3.13 mg/kg/injection, schedule: Q01DX009 (ip), vehicle: saline with Tween-80 88 % of control

COC(=O)C1=C(C)NC(=O)NC1c1ccc(OC)cc1 (stereo unspecified)
inactive: [1] 103 % of control | [2] 90 % of control | [3] 90 % of control

CN1c2ccc(Cl)cc2C2(C(=O)NN)C(C(=O)NN)N(C3CCCCC3)C(=O)C12N (stereo unspecified)
inactive: [4] 97 % of control | [5] 107 % of control

CCOC(=O)c1cnc(SC)nc1N(C)c1ccccc1
inactive: dose: 44.0 mg/kg/injection, schedule: Q04DX003 (ip), vehicle: Klucel (hydroxypropylcellulose) (HPC) 98 % of control | dose: 66.0 mg/kg/injection, schedule: Q04DX003 (ip), vehicle: Klucel (hydroxypropylcellulose) (HPC) 99 % of control | dose: 67.0 mg/kg/injection, schedule: Q04DX003 (ip), vehicle: Klucel (hydroxypropylcellulose) (HPC) 95 % of control | [6] 98 % of control and 101 % of control | dose: 150.0 mg/kg/injection, schedule: Q04DX003 (ip), vehicle: Klucel (hydroxypropylcellulose) (HPC) 95 % of control and 97 % of control

CCOC(=O)c1cc(Cl)cc(C(=O)OCC)n1
inactive: [4] 111 % of control | [5] 107 % of control | [7] 102 % of control

CCCNC(=S)NC
inactive: [6] 90 % of control | [8] 95 % of control | [9] 109 % of control

CC(C)(C)NC(=O)Oc1ccccc1C(N)=O
inactive: dose: 100.0 mg/kg/injection, schedule: Q01DX009 (ip), vehicle: Klucel (hydroxypropylcellulose) (HPC) 95 % of control | dose: 200.0 mg/kg/injection, schedule: Q01DX009 (ip), vehicle: Klucel (hydroxypropylcellulose) (HPC) 95 % of control | dose: 400.0 mg/kg/injection, schedule: Q01DX009 (ip), vehicle: Klucel (hydroxypropylcellulose) (HPC) 94 % of control

O=[N+]([O-])/C(Br)=C\c1ccc([N+](=O)[O-])cc1
inactive: dose: 75.0 mg/kg/injection, schedule: Q01DX001 (ip), vehicle: carboxymethylcellulose (CMC) 98 % of control | dose: 150.0 mg/kg/injection, schedule: Q01DX001 (ip), vehicle: carboxymethylcellulose (CMC) 105 % of control

NNc1nncc(=O)[nH]1
inactive: dose: 100.0 mg/kg/injection, schedule: Q01DX001 (ip), vehicle: saline with Tween-80 103 % of control | dose: 200.0 mg/kg/injection, schedule: Q01DX001 (ip), vehicle: saline with Tween-80 103 % of control

Cc1ccc(NC(=O)COc2ccc(Cl)cc2Cl)cc1Cl
inactive: dose: 25.0 mg/kg/injection, schedule: Q01DX009 (ip), vehicle: saline with Tween-80 91 % of control | [10] 89 % of control | [4] 86 % of control | [5] 87 % of control | [7] 88 % of control

CC(=O)N1Cc2ccc(/C=C(/C#N)C(N)=O)n2Cc2cc3c(cc21)OCO3
inactive: [11] 91 % of control | [12] 98 % of control | [13] 91 % of control

CCOC(=O)c1ccc(Nc2sc(C(=O)c3ccc(Br)cc3)c(N)c2C#N)cc1
inactive: dose: 100.0 mg/kg/injection, schedule: Q04DX002 (ip), vehicle: saline with Tween-80 102 % of control | dose: 200.0 mg/kg/injection, schedule: Q04DX002 (ip), vehicle: saline with Tween-80 94 % of control | dose: 400.0 mg/kg/injection, schedule: Q04DX002 (ip), vehicle: saline with Tween-80 88 % of control

O=[N+]([O-])c1ccc(/C=N\Nc2ccc([N+](=O)[O-])cn2)cc1
inactive: [10] 91 % of control | dose: 100.0 mg/kg/injection, schedule: Q01DX009 (ip), vehicle: saline sonified 92 % of control | [4] 95 % of control | [6] 94 % of control | dose: 200.0 mg/kg/injection, schedule: Q01DX009 (ip), vehicle: saline sonified 87 % of control | [5] 87 % of control | [8] 93 % of control | dose: 400.0 mg/kg/injection, schedule: Q01DX009 (ip), vehicle: saline sonified 95 % of control | [9] 101 % of control

COC1OC(CO)C(O)C(OC)C1OC (stereo unspecified)
inactive: dose: 100.0 mg/kg/injection, schedule: Q04DX003 (ip), vehicle: saline 93 % of control | dose: 200.0 mg/kg/injection, schedule: Q04DX003 (ip), vehicle: saline 103 % of control | dose: 400.0 mg/kg/injection, schedule: Q04DX003 (ip), vehicle: saline 106 % of control

NC(=O)n1ncnc1N
inactive: dose: 50.0 mg/kg/injection, schedule: Q01DX001 (ip), vehicle: carboxymethylcellulose (CMC) 110 % of control | dose: 100.0 mg/kg/injection, schedule: Q01DX001 (ip), vehicle: carboxymethylcellulose (CMC) 101 % of control | [1] 96 % of control | dose: 200.0 mg/kg/injection, schedule: Q01DX001 (ip), vehicle: carboxymethylcellulose (CMC) 104 % of control | [2] 97 % of control | dose: 400.0 mg/kg/injection, schedule: Q01DX001 (ip), vehicle: carboxymethylcellulose (CMC) 104 % of control | [3] 105 % of control

CC(C)(C)C1CCC(OS(C)(=O)=O)C(OS(C)(=O)=O)C1 (stereo unspecified)
inactive: dose: 12.5 mg/kg/injection, schedule: Q04DX003 (ip), vehicle: Klucel (hydroxypropylcellulose) (HPC) 102 % of control | dose: 25.0 mg/kg/injection, schedule: Q04DX003 (ip), vehicle: Klucel (hydroxypropylcellulose) (HPC) 100 % of control

CC(C)OCCCNC(=O)NS(=O)(=O)c1ccc(N)cc1
inactive: [1] 101 % of control | [2] 100 % of control | [3] 92 % of control

O=C1OC(=O)C2C1C1C3C(=O)C4C5C(=O)C3C2C5C41 (stereo unspecified)
inactive: dose: 75.0 mg/kg/injection, schedule: Q04DX002 (ip), vehicle: Klucel (hydroxypropylcellulose) (HPC) 97 % of control | dose: 150.0 mg/kg/injection, schedule: Q04DX002 (ip), vehicle: Klucel (hydroxypropylcellulose) (HPC) 97 % of control | dose: 300.0 mg/kg/injection, schedule: Q04DX002 (ip), vehicle: Klucel (hydroxypropylcellulose) (HPC) 97 % of control

CCOc1ccc(NC(=S)NC(=O)c2ccco2)cc1
inactive: [4] 93 % of control | [6] 104 % of control | [5] 93 % of control | [8] 94 % of control | [9] 100 % of control

Cc1[nH]c(=O)[nH]c(=O)c1CCS
inactive: dose: 100.0 mg/kg/injection, schedule: Q01DX001 (ip), vehicle: saline 94 % of control | dose: 200.0 mg/kg/injection, schedule: Q01DX001 (ip), vehicle: saline 95 % of control | dose: 400.0 mg/kg/injection, schedule: Q01DX001 (ip), vehicle: saline 101 % of control

Cc1oncc1/C=C/c1ccon1
inactive: dose: 100.0 mg/kg/injection, schedule: Q04DX003 (ip), vehicle: other 96 % of control | dose: 200.0 mg/kg/injection, schedule: Q04DX003 (ip), vehicle: other 91 % of control

CCOC(CN(Cc1ccc(OCc2ccccc2)c(OC)c1)S(=O)(=O)c1ccc(C)cc1)OCC
inactive: dose: 25.0 mg/kg/injection, schedule: Q01DX009 (ip), vehicle: water 102 % of control | dose: 50.0 mg/kg/injection, schedule: Q01DX009 (ip), vehicle: water 91 % of control | dose: 100.0 mg/kg/injection, schedule: Q01DX009 (ip), vehicle: water 105 % of control | dose: 200.0 mg/kg/injection, schedule: Q01DX009 (ip), vehicle: water 102 % of control | dose: 400.0 mg/kg/injection, schedule: Q01DX009 (ip), vehicle: water 100 % of control

O=C(O)C1Cc2ccccc21 (stereo unspecified)
inactive: [11] 96 % of control | [12] 96 % of control | [13] 92 % of control
